Test system: Mito-mCh
Test: mitochondria (Mito) translocation assay of rapabody and caffebody
Format: cell-based
Settings: HeLa cells, GFP-caffebody and Mito-mCh
Protocol: For ligand-controllable nanobodies rapabody and caffebody, similar imaging and data analysis procedures were used. Transfected HeLa cells were incubated with normal growth media or media supplemented with different concentrations of ligands or diluted beverages as indicated in the figures. Coffees and teas were purchased from Starbucks, while other drinks were purchased from a grocery store.
The instant example evaluates whether the installation of genetically-encoded chemical switches would likewise enable chemogenetic control of nanobodies. The LOV2 domain in the S3 loop of sunbody was substituted with two ligand-controllable precision switches, UniRapR and a dimeric concatemer of acVHH (2×acVHH; FIG. 23A). UniRapR, engineered from the FKBP-FRB based chemically-inducible dimerization system, has been used to enable rapamycin-induced allosteric control of a wide range of host proteins, including kinases and GTPases. Further, acVHH is known to induce self-dimerization upon addition of caffeine, and thus it was hypothesized to elicit conformational changes when inserted into a host protein as a dimeric concatemer. These intrabody compositions were named “rapabodies” and “caffebodies”, respectively, to reflect the compounds used for chemogenetic manipulation. […]

## Cn1c(=O)c2[nH]cnc2n(C)c1=O [theophylline]
  activation of caffebody by caffeine analog or beverages: could similarly activate caffebody

— US20250122266A1, “SMART SINGLE-DOMAIN INTRABODIES WITH PRECISION SWITCHES FOR BIOMEDICAL APPLICATIONS” (THE TEXAS A&M UNIVERSITY SYSTEM, priority 2020, published 2025)
